These results are taken from ChEMBL document CHEMBL1201862, “PubChem BioAssay data set” (2004).

SMILES strings stand for the structures. Values joined by “and” are separate entries in the source; they are usually repeats but may differ in a detail not shown here. Equal entries are not always repeated.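 Compound exposure: 48 hours, 5 concentrations, 96-well plates. Here, GI50 denotes the concentration required for 50% inhibition of growth.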 Active and inactive are the calls of the source. No stated cut-off is given here; in the data, active = GI50 up to about 1.1 µM and inactive = higher. A value given as a limit tells only on which side of the number the result lay.

Some test systems named below: MOLT-4; A549; M14; UACC-62; SF-295; DU-145; SF-268; SR; SNB-75; OVCAR-3; HL-60; OVCAR-8; CCRF-CEM; Hs-578T; Malme-3M; SK-MEL-2; NCI-H522; UO-31; OVCAR-4; HCC 2998.
What all share (assay): inhibition of tumour cell growth, NCI panel, 48 h

For `O=C1CCC(c2ccccc2)(c2ccccc2)CC1`, the GI50 was 30.6 µM (inactive) in the test on MOLT-4; 49.4 µM (inactive) in the test on A549; 65.8 µM (inactive) in the test on M14; > 100 µM (inactive) in the test on UACC-62; > 100 µM (inactive) in the test on SF-295; > 100 µM (inactive) in the test with DU-145. The GI50 in the test with SF-268 was > 100 µM (inactive); in the test with SR, 37.8 µM (inactive); in the test on SNB-75, > 100 µM (inactive); with OVCAR-3, > 100 µM (inactive); in the test on HL-60, 33.5 µM (inactive); in the test with OVCAR-8, > 100 µM (inactive). In addition, the GI50 in the test with CCRF-CEM is 19.8 µM (inactive); in the test on Hs-578T, 81.1 µM (inactive); in the test with Malme-3M, > 100 µM (inactive); with SK-MEL-2 it was > 100 µM (inactive); in the test with NCI-H522, 71.3 µM (inactive); in the test on UO-31, 65 µM (inactive). Besides, the GI50 in the test on OVCAR-4 is > 100 µM (inactive).
`Cn1c2c(c3c(=O)[nH]ncc31)CCc1ccccc1-2`: the GI50 was 21.8 µM (inactive) with MOLT-4; 29.1 µM (inactive) in the test with A549; 18.6 µM (inactive) in the test with M14; 32.9 µM (inactive) in the test on SF-295; 35.7 µM (inactive) in the test with DU-145; 31.2 µM (inactive) in the test on SF-268. Further, the GI50 with SR is 20.5 µM (inactive); with SNB-75, 21.2 µM (inactive); with OVCAR-3 it was 26.4 µM (inactive); in the test on HL-60, 27 µM (inactive); in the test with OVCAR-8, 57.3 µM (inactive); in the test on CCRF-CEM, 20.8 µM (inactive). Also, the GI50 is 10.2 µM (inactive) in the test with Hs-578T; 31.3 µM (inactive) with Malme-3M; 24.6 µM (inactive) with SK-MEL-2; 42.5 µM (inactive) with NCI-H522; 22.5 µM (inactive) with UO-31; 44.7 µM (inactive) in the test on OVCAR-4.
With `Cc1ccc(/C=C2/N/C(=N\N=C/C(O)C(O)C(O)CO)NC2=O)cc1` (configuration not stated), the GI50 in the test with A549, in the test with M14, in the test on SF-295, in the test with DU-145, with SF-268 and in the test with SR was > 100 µM (inactive) throughout. For the same compound, the GI50 with SNB-75 was > 100 µM (inactive); in the test on OVCAR-3, 52.4 µM (inactive) and 69.8 µM (inactive); in the test with HL-60 it was 56.5 µM (inactive) and 56.4 µM (inactive); in the test on OVCAR-8, > 100 µM (inactive); in the test on Hs-578T, > 100 µM (inactive); in the test on SK-MEL-2, > 100 µM (inactive). Besides, the GI50 is 71.6 µM (inactive) in the test with NCI-H522; > 100 µM (inactive) in the test on UO-31; 33.1 µM (inactive) and 35.8 µM (inactive) with OVCAR-4.
On to `COc1ccc(/N=N/C(=N\c2ccc(Cl)cc2)c2ccc(N(CCC#N)CCC#N)cc2)cc1`, for which the GI50 with MOLT-4 is 15.3 µM (inactive); in the test on A549, 47.6 µM (inactive); in the test on M14, 57.5 µM (inactive); in the test on UACC-62, 1.49 µM (inactive); in the test with SF-295 it was 2.2 µM (inactive); with DU-145, 20 µM (inactive). Further, the GI50 is 41.3 µM (inactive) with SF-268; 0.834 µM (active) with SR; 39 µM (inactive) in the test on SNB-75; 23.9 µM (inactive) in the test on OVCAR-3; > 100 µM (inactive) with OVCAR-8; < 0.01 µM (active) in the test with CCRF-CEM. Moreover, the GI50 is 87.9 µM (inactive) with Hs-578T; 0.851 µM (active) with SK-MEL-2; 17.4 µM (inactive) with NCI-H522; 5.06 µM (inactive) with UO-31; 4.91 µM (inactive) in the test on HCC 2998; 10.1 µM (inactive) in the test with OVCAR-4.
For `CC(C)(C)/C(O)=C\c1nc2cc(F)c(F)cc2[nH]c1=O`, the GI50 in the test with MOLT-4 was 48.4 µM (inactive); in the test on M14 it was > 100 µM (inactive); in the test on UACC-62, > 100 µM (inactive); in the test on SF-295, > 100 µM (inactive); in the test with DU-145, 25.7 µM (inactive); with SF-268 it was > 100 µM (inactive). For the same compound, the GI50 with SR, in the test on SNB-75, in the test with HL-60, in the test on OVCAR-8, in the test with CCRF-CEM and in the test with Hs-578T was > 100 µM (inactive) in each case. The GI50 in the test with SK-MEL-2, in the test with UO-31, in the test on HCC 2998 and with OVCAR-4 was > 100 µM (inactive) each time.
As for `CC(=O)OI1NC(=O)c2ccccc21`, the GI50 with MOLT-4, with A549, with M14, in the test with UACC-62, in the test with SF-295 and with DU-145 was > 100 µM (inactive) in each case. The GI50 with SF-268, with SR, with SNB-75, with OVCAR-3, in the test on HL-60 and in the test with OVCAR-8 was > 100 µM (inactive) in each case. In addition, the GI50 with CCRF-CEM was 76.7 µM (inactive); in the test with Hs-578T, > 100 µM (inactive); with Malme-3M, > 100 µM (inactive); in the test on SK-MEL-2, > 100 µM (inactive); in the test with NCI-H522 it was 80.2 µM (inactive); with UO-31 it was > 100 µM (inactive). Besides, in the test on OVCAR-4, the GI50 is > 100 µM (inactive).
For `O=C1C2C(c3ccccc3)NC(c3ccccc3)C1C(c1ccccc1)NC2c1ccccc1` (configuration not stated), the GI50 in the test on MOLT-4, with A549, with M14, with UACC-62, in the test on SF-295 and in the test on DU-145 was > 100 µM (inactive) each time. For the same compound, the GI50 in the test with SF-268, in the test on SR, in the test on SNB-75, in the test on OVCAR-3, in the test on HL-60 and in the test on OVCAR-8 was > 100 µM (inactive) each time. The GI50 in the test on CCRF-CEM, in the test on Hs-578T, with Malme-3M, in the test with SK-MEL-2, with NCI-H522 and in the test with UO-31 was > 100 µM (inactive) in each case. In the test with OVCAR-4, the GI50 was > 100 µM (inactive).
With `O=C(Nc1ccc(Cl)cc1)[C-](C(=O)c1ccc(Br)cc1)[n+]1cccc(-c2ccc(Cl)cc2)n1`, the GI50 was 5.05 µM (inactive) in the test on MOLT-4; 3.72 µM (inactive) in the test on A549; 3.68 µM (inactive) with M14; 3.85 µM (inactive) with UACC-62; 2.6 µM (inactive) with SF-295; 5.45 µM (inactive) with DU-145. For the same compound, the GI50 in the test on SF-268 is 4.62 µM (inactive); in the test with SR, 2.27 µM (inactive); in the test on SNB-75, 6.49 µM (inactive); in the test with OVCAR-3, 2.92 µM (inactive); in the test with OVCAR-8, 3.56 µM (inactive); with Hs-578T, 4.25 µM (inactive). Further, the GI50 was 2.86 µM (inactive) in the test on Malme-3M; 3.57 µM (inactive) in the test on SK-MEL-2; 2.26 µM (inactive) in the test with NCI-H522; 5.87 µM (inactive) with UO-31; 6.78 µM (inactive) in the test with HCC 2998; 3.65 µM (inactive) in the test with OVCAR-4.
Regarding `Cc1ccc(C)n2c1nc1ccccc12`, the GI50 in the test with MOLT-4 was 62.4 µM (inactive); in the test with A549 it was 33 µM (inactive); with M14, > 100 µM (inactive); in the test with UACC-62, 80.5 µM (inactive); in the test on SF-295, > 100 µM (inactive); in the test with DU-145, > 100 µM (inactive). The GI50 with SF-268 is > 100 µM (inactive); in the test on SR, > 100 µM (inactive); with SNB-75, 24.9 µM (inactive); in the test with OVCAR-3 it was > 100 µM (inactive); in the test on HL-60 it was > 100 µM (inactive); with OVCAR-8, > 100 µM (inactive). Further, the GI50 in the test on CCRF-CEM was > 100 µM (inactive); in the test on Hs-578T, > 100 µM (inactive); with Malme-3M, > 100 µM (inactive); in the test with UO-31, 91.4 µM (inactive); with HCC 2998, > 100 µM (inactive).
Take `CC(C)C(C/C=C1\CC(CO)(COC(=O)C2CCCCC2)OC1=O)C(C)C` (configuration not stated): the GI50 in the test on MOLT-4 is 6.87 µM (inactive); with A549, 16.8 µM (inactive); in the test on M14, 21.8 µM (inactive); with UACC-62 it was 43.8 µM (inactive); with SF-295 it was 16.3 µM (inactive); in the test with DU-145 it was 12.3 µM (inactive). Also, the GI50 was 17.7 µM (inactive) in the test on SF-268; 27 µM (inactive) in the test on SR; 12.9 µM (inactive) in the test with SNB-75; 20 µM (inactive) in the test with OVCAR-3; 18.7 µM (inactive) in the test on OVCAR-8; 16.9 µM (inactive) in the test on CCRF-CEM. In addition, the GI50 with Hs-578T is 13.2 µM (inactive); in the test with Malme-3M it was 16.2 µM (inactive); in the test with SK-MEL-2, > 100 µM (inactive); with NCI-H522, 16.5 µM (inactive); with UO-31 it was 17.4 µM (inactive); in the test with HCC 2998, 27.9 µM (inactive). Also, the GI50 in the test on OVCAR-4 is 18 µM (inactive).
As to `COc1ccc(/C=C/c2cc(OC)cc(=O)o2)cc1` [YANGONIN], the GI50 was > 100 µM (inactive) with MOLT-4; > 100 µM (inactive) with A549; 68.4 µM (inactive) in the test with M14; 63.1 µM (inactive) in the test on UACC-62; 37.2 µM (inactive) in the test with SF-295; 95.9 µM (inactive) in the test on DU-145. For the same compound, the GI50 is 60.1 µM (inactive) in the test with SF-268; > 100 µM (inactive) in the test with SR; 20 µM (inactive) in the test with SNB-75; > 100 µM (inactive) with OVCAR-3; > 100 µM (inactive) in the test with HL-60; > 100 µM (inactive) in the test on OVCAR-8. For the same compound, the GI50 in the test on CCRF-CEM is > 100 µM (inactive); in the test on Hs-578T, 35.5 µM (inactive); in the test on Malme-3M it was > 100 µM (inactive); with SK-MEL-2, 72.1 µM (inactive); in the test with UO-31 it was > 100 µM (inactive); in the test with HCC 2998, > 100 µM (inactive). Also, the GI50 with OVCAR-4 is > 100 µM (inactive).
